According to patent US9714222B2, “Methods and compositions for treating Ewings sarcoma family of tumors” (GEORGETOWN UNIVERSITY, priority 2012, dated 2017):

How the values were obtained:
[1] = system: EWS-FLI1 and ESFT cells; settings: cited from earlier work
[2] = target: T1, EWS-FLI1/RHA interaction (Homo sapiens, UniProt Q01543+Q01844); test: Immunoblot of co-precipitated protein lysates from treated TC32 cells; assay type: cell-based; settings: FIG. 4
T1 construct: endogenous in cells; host or cells: TC32 cells
T1 sequence (Q01844+Q01543 with tags, fused parts or gaps): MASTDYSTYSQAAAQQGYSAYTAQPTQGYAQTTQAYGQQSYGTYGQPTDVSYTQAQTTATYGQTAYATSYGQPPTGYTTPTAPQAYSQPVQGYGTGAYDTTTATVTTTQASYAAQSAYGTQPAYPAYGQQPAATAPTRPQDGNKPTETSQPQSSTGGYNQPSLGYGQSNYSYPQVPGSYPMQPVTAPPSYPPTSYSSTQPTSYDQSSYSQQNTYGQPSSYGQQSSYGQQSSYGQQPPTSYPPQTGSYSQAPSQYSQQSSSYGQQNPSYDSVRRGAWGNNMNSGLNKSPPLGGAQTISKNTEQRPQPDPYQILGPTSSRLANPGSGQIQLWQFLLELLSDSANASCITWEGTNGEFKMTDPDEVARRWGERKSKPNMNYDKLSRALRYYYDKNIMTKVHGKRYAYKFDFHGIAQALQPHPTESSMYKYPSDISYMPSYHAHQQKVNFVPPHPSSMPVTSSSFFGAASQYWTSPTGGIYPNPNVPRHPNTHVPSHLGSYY
Description: The disruption of the interaction of RHA with EWS-FLI1 presents an avenue for the development of a class of small molecules as potential therapeutics against the Ewing's family sarcoma tumors.

[3] = system: TC71 (human ESFT cell line); test: IC50 activity in TC71 cells; assay type: cell-based
Experimental: Compounds provided in Table 2 were prepared using methods similar to those described herein. The structures and IC50 activities of particular compounds in PANC1 (a human pancreatic carcinoma), TC32 (human ESFT cell line), and TC71 (human ESFT cell line) cells are summarized in Table 2.
Growth inhibition of ESFT cells was measured for various concentrations of particular compounds.

Compound	caspase-3 activity [1]	functional inhibition of EWS-FLI1 and ESFT cells [1]	disruption of interaction of RHA with EWS-FLI1 ([2]; co-precipitation)	effect on level of EWS-FLI1 or RHA ([2]; immunoblot)	potency compared with YK-4-279 [3]
COc1ccc(C(=O)CC2(O)C(=O)Nc3c(Cl)ccc(Cl)c32)cc1 (racemic) [YK-4-279]	increase	functionally inhibit EWS-FLI1 and ESFT cells	did disrupt their interactions	did not directly affect the level of EWS-FLI1 or RHA	
CN(C)c1ccc(C(=O)CC2(O)C(=O)Nc3c(Cl)ccc(Cl)c32)cc1 (centres unmarked) [PT-1-17]					appeared to be more potent
